Measured values from the supplement of paper PMC10307832.

Legend:
Experiment in all cases: relative viability (nuclei count vs DMSO), 5 days (fraction); higher = more cells survive
Everolimus + Vorinostat = compound: CO[C@H]1C[C@@H]2CC[C@@H](C)[C@@](O)(O2)C(=O)C(=O)N2CCCC[C@H]2C(=O)O[C@H]([C@H](C)C[C@@H]2CC[C@@H](OCCO)[C@H](OC)C2)CC(=O)[C@H](C)/C=C(\C)[C@@H](O)[C@@H](OC)C(=O)[C@H](C)C[C@H](C)/C=C/C=C/C=C/1C [Everolimus] + O=C(CCCCCCC(=O)Nc1ccccc1)NO [Vorinostat] (partner 1 µM)
Outline: (§1)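 Values are medians from duplicate plates. Each reflects relative viability, defined as the nuclei count of treated wells over that of vehicle wells. Lung cancer cell lines in 1536-well plates were pin-tool dosed one day after seeding with one drug alone or with a fixed anchor-drug dose plus five library-drug doses (not always all listed) in √10 steps, then fixed, stained and imaged at 4× after 5 days.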

Everolimus + Palbociclib = compound: CO[C@H]1C[C@@H]2CC[C@@H](C)[C@@](O)(O2)C(=O)C(=O)N2CCCC[C@H]2C(=O)O[C@H]([C@H](C)C[C@@H]2CC[C@@H](OCCO)[C@H](OC)C2)CC(=O)[C@H](C)/C=C(\C)[C@@H](O)[C@@H](OC)C(=O)[C@H](C)C[C@H](C)/C=C/C=C/C=C/1C [Everolimus] + CC(=O)c1c(C)c2cnc(Nc3ccc(N4CCNCC4)cn3)nc2n(C2CCCC2)c1=O [Palbociclib] (partner 0.5 µM)
Outline: as §1

Everolimus + Pemetrexed = compound: CO[C@H]1C[C@@H]2CC[C@@H](C)[C@@](O)(O2)C(=O)C(=O)N2CCCC[C@H]2C(=O)O[C@H]([C@H](C)C[C@@H]2CC[C@@H](OCCO)[C@H](OC)C2)CC(=O)[C@H](C)/C=C(\C)[C@@H](O)[C@@H](OC)C(=O)[C@H](C)C[C@H](C)/C=C/C=C/C=C/1C [Everolimus] + Nc1nc2[nH]cc(CCc3ccc(C(=O)N[C@@H](CCC(=O)O)C(=O)O)cc3)c2c(=O)[nH]1 [Pemetrexed] (partner 0.2 µM)
Outline: as §1

Everolimus + Dasatinib = compound: CO[C@H]1C[C@@H]2CC[C@@H](C)[C@@](O)(O2)C(=O)C(=O)N2CCCC[C@H]2C(=O)O[C@H]([C@H](C)C[C@@H]2CC[C@@H](OCCO)[C@H](OC)C2)CC(=O)[C@H](C)/C=C(\C)[C@@H](O)[C@@H](OC)C(=O)[C@H](C)C[C@H](C)/C=C/C=C/C=C/1C [Everolimus] + Cc1nc(Nc2ncc(C(=O)Nc3c(C)cccc3Cl)s2)cc(N2CCN(CCO)CC2)n1 [Dasatinib] (partner 0.075 µM)
Outline: as §1

| Cell Line | relative viability (Everolimus + Vorinostat; first compound 0.01 µM) | relative viability (Everolimus + Vorinostat; first compound 0.03162 µM) | relative viability (Everolimus + Vorinostat; first compound 0.1 µM) | relative viability (Everolimus + Vorinostat; first compound 0.3162 µM) | relative viability (Everolimus + Vorinostat; first compound 1 µM) | relative viability (Everolimus + Palbociclib; first compound 0.01 µM) | relative viability (Everolimus + Palbociclib; first compound 0.03162 µM) | relative viability (Everolimus + Palbociclib; first compound 0.1 µM) | relative viability (Everolimus + Palbociclib; first compound 0.3162 µM) | relative viability (Everolimus + Palbociclib; first compound 1 µM) | relative viability (Everolimus + Pemetrexed; first compound 0.01 µM) | relative viability (Everolimus + Pemetrexed; first compound 0.03162 µM) | relative viability (Everolimus + Pemetrexed; first compound 0.1 µM) | relative viability (Everolimus + Pemetrexed; first compound 0.3162 µM) | relative viability (Everolimus + Pemetrexed; first compound 1 µM) | relative viability (Everolimus + Dasatinib; first compound 0.01 µM) | relative viability (Everolimus + Dasatinib; first compound 0.03162 µM) | relative viability (Everolimus + Dasatinib; first compound 0.1 µM) | relative viability (Everolimus + Dasatinib; first compound 0.3162 µM) | relative viability (Everolimus + Dasatinib; first compound 1 µM) |
| --- | --- | --- | --- | --- | --- | --- | --- | --- | --- | --- | --- | --- | --- | --- | --- | --- | --- | --- | --- | --- |
| NCI-H2170 | 0.326 | 0.314 | 0.27 | 0.309 | 0.338 | 0.195 | 0.187 | 0.162 | 0.16 | 0.186 | 0.259 | 0.26 | 0.248 | 0.271 | 0.257 | 0.366 | 0.292 | 0.312 | 0.302 | 0.262 |
| NCI-H2228 | 0.536 | 0.342 | 0.458 | 0.436 | 0.336 | 0.597 | 0.403 | 0.337 | 0.408 | 0.339 | 0.252 | 0.313 | 0.312 | 0.285 | 0.243 | 0.335 | 0.394 | 0.246 | 0.271 | 0.253 |
| NCI-H2342 | 0.559 | 0.438 | 0.524 | 0.56 | 0.633 | 0.48 | 0.407 | 0.493 | 0.44 | 0.463 | 0.559 | 0.478 | 0.446 | 0.584 | 0.477 | 0.274 | 0.323 | 0.277 | 0.262 | 0.319 |
| NCI-H2347 | 0.565 | 0.556 | 0.455 | 0.419 | 0.551 | 0.386 | 0.403 | 0.401 | 0.424 | 0.373 | 0.406 | 0.442 | 0.486 | 0.412 | 0.434 | 0.242 | 0.285 | 0.188 | 0.293 | 0.189 |
| NCI-H2405 | 0.696 | 0.679 | 0.652 | 0.606 | 0.75 | 0.336 | 0.351 | 0.332 | 0.381 | 0.358 | 0.796 | 0.825 | 0.671 | 0.726 | 0.825 | 0.207 | 0.211 | 0.183 | 0.182 | 0.209 |
| NCI-H3122 | 0.678 | 0.598 | 0.607 | 0.369 | 0.669 | 0.166 | 0.178 | 0.169 | 0.17 | 0.133 | 0.198 | 0.232 | 0.228 | 0.208 | 0.201 | 0.584 | 0.0535 | 0.0826 | 0.0717 | 0.112 |
| PC-3 [JPC-3] | 0.693 | 0.498 | 0.54 |  | 0.566 | 0.579 | 0.497 | 0.548 |  | 0.545 | 0.988 | 0.9 | 0.72 |  | 1.07 | 0.93 | 0.77 | 0.797 | 0.669 | 0.675 |
| PC-14 | 0.379 | 0.576 | 0.486 | 0.528 | 0.421 | 0.43 | 0.368 | 0.336 | 0.301 | 0.295 | 0.176 | 0.186 | 0.181 | 0.184 | 0.184 | 0.23 | 0.168 | 0.216 | 0.237 | 0.177 |
| RERF-LC-KJ | 0.552 | 0.461 | 0.446 | 0.478 | 0.49 | 0.88 | 0.674 | 0.644 | 0.588 | 0.511 | 0.468 | 0.489 | 0.498 | 0.426 | 0.457 | 0.589 | 0.573 | 0.483 | 0.549 | 0.457 |
| SK-LU-1 | 0.52 | 0.52 | 0.587 | 0.538 | 0.527 | 0.444 | 0.342 | 0.303 | 0.318 | 0.298 | 0.607 | 0.683 | 0.688 | 0.74 | 0.681 | 0.16 | 0.166 | 0.177 | 0.176 | 0.188 |
| SK-MES-1 | 0.897 | 1 | 1 | 0.887 | 0.743 | 0.239 | 0.264 | 0.258 | 0.273 | 0.243 | 0.839 | 0.826 | 0.825 | 0.827 | 0.741 | 0.357 | 0.339 | 0.398 | 0.346 | 0.331 |
| SW 900 | 0.41 | 0.301 | 0.339 | 0.37 | 0.266 | 0.445 | 0.331 | 0.406 | 0.383 | 0.318 | 0.391 | 0.432 | 0.482 | 0.431 | 0.421 | 0.571 | 0.345 | 0.34 | 0.45 | 0.335 |
| SW 1573 | 0.373 | 0.452 | 0.465 | 0.458 | 0.478 | 0.237 | 0.201 | 0.175 | 0.224 | 0.225 | 0.594 | 0.592 | 0.543 | 0.562 | 0.496 | 0.259 | 0.353 | 0.207 | 0.244 | 0.215 |
| UMC-11 | 0.213 | 0.196 | 0.19 | 0.187 | 0.213 | 0.261 | 0.262 | 0.282 | 0.3 | 0.272 | 0.43 | 0.412 | 0.429 | 0.394 | 0.426 | 0.307 | 0.293 | 0.326 | 0.319 | 0.302 |
